Laboratory results taken from article PMC12121987, “New structural scaffolds to enhance the metabolic stability of arginine-derived PAD4 inhibitors” (Results in chemistry, 2025).
Like-named read-outs stand apart in the source and are kept apart here.

Experiments:
[1] = Microsomal metabolic stability, human liver microsomes; type: in vitro ADME; settings: both sexes, pooled liver microsomes; for remaining at 1 h, 0.2 μM: pH 7.4, 60 min, n = 3, read-out: %remaining in HLM; for half-life at 0.2 μM: pH 7.4, HLM, read-out: half-life (t1/2) in human liver microsomes
Protocol: (§1) The metabolic stability of the compounds was evaluated using mouse liver microsomes (MLM) and human liver microsomes (HLM). Each compound was tested at a final concentration of 0.2 μM to determine their half-lives. […]
(§2) Microsomal metabolic stability assay protocol
(§3) Pooled liver microsomes from male C57BL/6 mouse (MLM) and mixed gender human (HLM) were obtained from Sekisui XenoTech (Kansas City, KS). Stock solutions of compounds (1 mM) were prepared in DMSO and diluted to 10 μM working solution using phosphate buffer (100 mM, pH 7.4). Microsomes (20 mg/mL) were thawed on ice and diluted to 1 mg/mL using potassium phosphate buffer (100 mM, pH 7.4). The mixture of liver microsomes and test compounds (0.2 μM) was (1 picture or pasted object on this page, not shown here) […]
(§4) preincubated at 37°C for 10 min. Next, NADPH-regenerating system (final concentrations of 1 mM NADP+, 5 mM glucose-6-phosphate, and 1 U/mL glucose-6-phosphate dehydrogenase) as a cofactor was added to the incubation mixtures at the final volume of 1000 μL to initiate the metabolic reactions. Quenching of the metabolic reaction was performed at specific intervals: 0, 5, 15, 30, and 60 min by adding100 μL of reaction mixtures to ice-cold acetonitrile (4 volumes) containing 25 nM internal standard. The samples were kept on ice for 15 minutes, followed by protein precipitation through centrifugation at 3600 rpm for 10 minutes at4°C. Finally, the liquid chromatography-mass spectrometry/MS (LC-MS/MS) analysis was conducted on obtained supernatants. To ensure accuracy, all measurements were […]
(§5) The percent of remaining compound (%R) compared to zero sample time was obtained at each time point using LC-MS peak areas. A plot was created for the natural logarithm (ln) of % R against the incubation time to determine the elimination rate constant from the slope of the linear part. The in vitro t1/2was measured by […]
(§6) While the following Eq. (2) was used for calculating CLint (μL/min/mg): […]

[2] = Microsomal metabolic stability, mouse liver microsomes; type: in vitro ADME; settings: male, C57BL/6, mouse, pooled liver microsomes; for remaining at 1 h, 0.2 μM: pH 7.4, 60 min, n = 3, read-out: %remaining in MLM; for half-life at 0.2 μM: pH 7.4, MLM
Protocol: as §1, §2, §3, §4, §5, §6

[3] = molecular target: T1, PAD4 (Homo sapiens, UniProt Q9UM07); experiment: PAD4 enzyme inhibition assay (Cayman PAD4 inhibitor screening kit, AMC); type: biochemical; settings: n = 3; read-out: Inhibitory activity IC50 PAD4
T1 construct: purchased Cayman Chemical
Protocol: chromatography with ACN:H2O (0.02% formic acid) as the mobile phase, and then […]
(§7) PAD4 Enzyme Inhibition Assays
(§8) PAD4 Inhibitor Screening Assay Kit (AMC) was purchased from Cayman. Different concentrations of the test compounds were added to a 96-well plate with PAD4 enzyme enzyme and incubated at 37 °C for 10 minutes or 30 minutes. Then […] was added toinitiate the reaction and incubated at 37 °C for 20 min. The reaction was terminated by the addition of Develop solution.
Fluorescence analysis was performed at excitation wavelengths of 355 ~ 365 nm and emission wavelengths of 445 ~ 455 nm. The fluorescence signal was inversely proportional to the amount ofcitrullination. IC50 were analyzed using GraphPad Prism […]
as §2
Pooled liver microsomes from male C57BL/6 mouse (MLM) and mixed gender human (HLM) were obtained from Sekisui XenoTech (Kansas City, KS). Stock solutions of compounds (1 mM) were prepared in DMSO and diluted to 10 μM working solution using phosphate buffer (100 mM, pH 7.4). Microsomes (20 mg/mL) were thawed on ice and diluted to 1 mg/mL using potassium phosphate buffer (100 mM, pH 7.4). The mixture of liver microsomes and test compounds (0.2 μM) was (1 picture or pasted object on this page, not shown here)

[4] = molecular target: PAD2 (Homo sapiens, UniProt Q9Y2J8); experiment: PAD2 inhibitory activity; type: biochemical; settings: n = 3
[5] = MTT cytotoxicity assay; type: cell-based; settings: human, A549 cells, 48-hour incubation; for viability at 48 h, 500 µM: read-out: Cell viability of A549 cells; for IC50 at 48 h: read-out: IC50 against A549 cells (cytotoxicity)
Protocol: (§9) The cytotoxicity of three compounds on A549 cells was evaluated using the MTT assay.
(§10) In vitro cytotoxicity was evaluated using the MTT
(§11) (3-(4,5-dimethylthiazol-2-yl)-2,5-diphenyltetrazolium bromide) assay. Freshly trypsinized A549 cells were seeded into 96-well plates at a density of 5 × 10⁴ cells/mL, with 100 µL per well, and incubated at 37°C in a 5% CO₂ atmosphere for 12 hours. […]
(§12) concentrations of 500 μM, 50 μM, and 5 μM (25 µL per well), followed by 48-hour incubation. After this period, MTT solution (5 mg/mL) was added to each well at 25 µL per well, and the plates were incubated for an additional 4 hours. Control wells containing untreated cells were handled identically. Following incubation, the medium in the 96-well plate was removed, and 100 µL of DMSO was added to each well to dissolve the formazan crystals produced by the reduction of MTT in viable cells. Absorbance was measured using a microplate reader. Cell viability was determined using the following formula: Cell viability (%) = (OD-treated cells)/(OD […]

[6] = system: A549 cells; experiment: MTT cytotoxicity assay; type: cell-based; settings: 50 μM and 5 μM, 48-hour incubation
Protocol: as §9, §10, §11, §12

[7] = molecular target: T2, PAD1 (Homo sapiens, UniProt Q9ULC6); experiment: PAD1 inhibitory activity; type: biochemical; settings: n = 3
T2 sequence (Q9ULC6 1-663): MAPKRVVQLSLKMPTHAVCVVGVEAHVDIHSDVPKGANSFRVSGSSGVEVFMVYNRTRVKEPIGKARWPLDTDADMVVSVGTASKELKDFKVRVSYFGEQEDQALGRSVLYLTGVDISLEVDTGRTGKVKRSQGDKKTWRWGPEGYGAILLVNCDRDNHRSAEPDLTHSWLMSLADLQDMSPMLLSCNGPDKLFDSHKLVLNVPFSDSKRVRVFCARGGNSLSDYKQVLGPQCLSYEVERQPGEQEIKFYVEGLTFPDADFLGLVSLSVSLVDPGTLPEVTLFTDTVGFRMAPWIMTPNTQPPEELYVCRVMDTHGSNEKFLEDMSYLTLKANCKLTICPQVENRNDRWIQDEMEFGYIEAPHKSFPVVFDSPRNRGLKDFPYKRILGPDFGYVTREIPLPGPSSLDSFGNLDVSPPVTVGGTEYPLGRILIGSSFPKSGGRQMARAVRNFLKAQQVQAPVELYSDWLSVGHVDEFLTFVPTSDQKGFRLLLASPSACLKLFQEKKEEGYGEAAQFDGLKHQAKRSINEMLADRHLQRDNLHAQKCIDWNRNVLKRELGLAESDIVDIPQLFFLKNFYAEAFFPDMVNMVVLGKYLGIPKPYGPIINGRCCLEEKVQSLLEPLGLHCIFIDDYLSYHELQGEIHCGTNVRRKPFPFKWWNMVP

[8] = molecular target: T1, PAD4; experiment: Time-dependent PAD4 inhibition assay (pre-incubation 10 or 30 min); type: biochemical; settings: BB-Cl-amidine 1 μM, 7 125 μM, 8 45 μM, n = 3
Protocol: To test this hypothesis, the three compounds (3, 7 and 8) were further assessed through a time-dependent inhibition assay. This assay involved pre-incubating the compounds with the PAD4 enzyme for 10 and 30 min before initiation of the enzymatic reaction.
Fig. 3. Inhibition of PAD4 with a pre-incubation of the enzyme and tested compounds for 10- or 30-min. […]
as §7, §8
Fluorescence analysis was performed at excitation wavelengths of 355 ~ 365 nm and emission wavelengths of 445 ~ 455 nm. The fluorescence signal was inversely

[9] = cited from earlier work
[10] = read-out: half-life (t1/2) in mouse liver microsomes
[11] = rough estimation beyond the 60 min assay, read-out: t1/2 in MLM, rough estimation

T1 sequence (Q9UM07 whole entry): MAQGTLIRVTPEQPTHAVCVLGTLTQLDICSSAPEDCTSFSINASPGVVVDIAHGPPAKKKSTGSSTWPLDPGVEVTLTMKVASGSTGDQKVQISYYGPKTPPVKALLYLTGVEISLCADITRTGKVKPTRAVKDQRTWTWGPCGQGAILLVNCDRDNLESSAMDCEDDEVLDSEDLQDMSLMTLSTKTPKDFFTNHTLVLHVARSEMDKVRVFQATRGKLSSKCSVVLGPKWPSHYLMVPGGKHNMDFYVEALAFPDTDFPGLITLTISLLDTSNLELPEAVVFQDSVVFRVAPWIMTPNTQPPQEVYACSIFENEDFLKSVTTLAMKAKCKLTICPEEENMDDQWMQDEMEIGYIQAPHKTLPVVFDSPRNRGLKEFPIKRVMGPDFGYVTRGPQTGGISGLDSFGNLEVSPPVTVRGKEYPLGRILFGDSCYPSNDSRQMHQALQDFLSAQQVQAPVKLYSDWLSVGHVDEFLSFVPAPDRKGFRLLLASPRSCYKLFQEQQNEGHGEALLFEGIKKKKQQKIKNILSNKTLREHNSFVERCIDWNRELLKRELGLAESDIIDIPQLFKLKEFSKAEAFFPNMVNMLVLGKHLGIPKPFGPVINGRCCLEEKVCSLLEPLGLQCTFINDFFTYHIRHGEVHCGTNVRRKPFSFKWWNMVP
Sequence of PAD2 (Q9Y2J8 whole entry, species assumed): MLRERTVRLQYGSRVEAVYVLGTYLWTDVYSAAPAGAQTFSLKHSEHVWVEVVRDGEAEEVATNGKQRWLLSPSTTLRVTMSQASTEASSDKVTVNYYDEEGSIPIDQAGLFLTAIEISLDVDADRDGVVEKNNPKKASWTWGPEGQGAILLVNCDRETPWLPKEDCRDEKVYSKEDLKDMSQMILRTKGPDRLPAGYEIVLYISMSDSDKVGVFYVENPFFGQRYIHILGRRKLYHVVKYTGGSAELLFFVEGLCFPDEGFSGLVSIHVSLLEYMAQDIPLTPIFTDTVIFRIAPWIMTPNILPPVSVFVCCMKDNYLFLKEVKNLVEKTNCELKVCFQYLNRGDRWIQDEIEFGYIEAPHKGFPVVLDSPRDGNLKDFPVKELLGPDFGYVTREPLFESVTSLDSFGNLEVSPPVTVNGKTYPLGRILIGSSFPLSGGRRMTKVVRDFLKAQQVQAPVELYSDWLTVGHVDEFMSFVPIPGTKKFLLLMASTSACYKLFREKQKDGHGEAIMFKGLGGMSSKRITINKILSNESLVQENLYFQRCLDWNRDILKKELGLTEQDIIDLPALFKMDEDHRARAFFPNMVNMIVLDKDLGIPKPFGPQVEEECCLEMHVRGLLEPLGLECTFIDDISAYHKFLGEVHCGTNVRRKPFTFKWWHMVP

Row | Compound | remaining at 1 h, 0.2 μM [1] | half-life at 0.2 μM [1] | remaining at 1 h, 0.2 μM [2] | half-life at 0.2 μM [2, 10] | IC50 [3] | IC50 [4] | IC50 [7] | half-life at 0.2 μM [2, 11] | %inhibition of PAD4, pre-incubation 10 min [8] | %inhibition of PAD4, pre-incubation 30 min [8] | viability at 48 h, 500 µM [5] | IC50 at 48 h [5] | Cytotoxicity on A549 cells [6] | t1/2 (pharmacokinetic studies) [9] | t1/2 (pharmacokinetic studies) ([9]; in vivo)
1 | N=C(CCl)NCCC[C@H](NC(=O)c1ccc(-c2ccccc2)cc1)c1nc2ccccc2[nH]1 [BB-Cl-amidine, reference compound] | 51.8 ± 7.48% | 1.03 h | 10.4 ± 1.42% | 0.302 h | – | – | – | – | – | – | – | – | – | – | –
2 | N=C(CCl)NCCC[C@H](NC(=O)c1ccc(B(O)O)cc1)C(=O)NCc1ccccc1 [YJ-4B] | – | – | – | – | – | – | – | – | – | – | – | – | – | 0.35 h | –
3 | N=C(CCl)NCCC[C@H](Nc1ccc([N+](=O)[O-])c2nonc12)C(=O)NCc1ccccc1 [ZD-E-1] | – | – | – | – | – | – | – | – | – | – | – | – | – | – | 0.41 h

Now from value to molecule, other results behind:

Row | remaining at 1 h, 0.2 μM [1] | half-life at 0.2 μM [1] | remaining at 1 h, 0.2 μM [2] | half-life at 0.2 μM [2, 10] | IC50 [3] | IC50 [4] | IC50 [7] | half-life at 0.2 μM [2, 11] | %inhibition of PAD4, pre-incubation 10 min [8] | %inhibition of PAD4, pre-incubation 30 min [8] | Compound | viability at 48 h, 500 µM [5] | IC50 at 48 h [5] | Cytotoxicity on A549 cells [6] | t1/2 (pharmacokinetic studies) [9] | t1/2 (pharmacokinetic studies) ([9]; in vivo)
4 | 90.3 ± 10.6% | > 1 h | 75.9 ± 4.75% | > 1 h | 125 ± 10.2 µM | 352 ± 21.3 µM | 194 ± 8.21 µM | ~2.65 h | 31.46% | 36.86% | N=C(CO)NCCC[C@H](NC(=O)c1ccc(-c2ccccc2)cc1)c1nc2ccccc2[nH]1 [Compound 7] | 26.8% | ~455 µM | no cytotoxicity | – | –
5 | 73.2 ± 1.89% | > 1 h | 63 ± 4.85% | > 1 h | 46.5 ± 4.46 µM | 74.9 ± 6.48 µM | 32 ± 0.78 µM | ~1.45 h | 49.28% | 51.44% | O=C(CO)NCCC[C@H](NC(=O)c1ccc(-c2ccccc2)cc1)c1nc2ccccc2[nH]1 [Compound 8] | 103% | > 500 µM | no cytotoxicity | – | –
